Results from US20080021002A1, “VITAMIN D COMPOUNDS USED TO STABILIZE KIDNEY TRANSPLANTS” (priority 2000, published 2008).

How the values were obtained:
MMP 2 protein = assay: Antigen-capture ELISA of renal graft lysates, total MMP 2 protein; type: in vivo, rat; conditions: vs untreated allogeneic group (FIG. 5B); 1,25-(OH)2D3: syngeneic and allogeneic groups; CSA: allogeneic
Method: (§1) FIG. 5 is a set of graphs showing that 1,25-(OH)2D3 Treatment Alters MMP and TIMP Expression . […] S26 was used as the housekeeping gene. […] Fold changes are expressed relative to the allogeneic untreated control.
(§2) Enzyme Linked Immunoabsorbant Assay (ELISA): TGFβ-1 and MMP 2 levels were quantified by antigen-capture ELISA. […] After blocking with 1× block buffer at 37° C. for 35 minutes 25 ul of cell lysate (diluted 1:10 in the lysis buffer) was added to the wells. A standard curve was generated by performing two fold serial dilutions of the standard active TGFβ-1 antigen (diluted 15.6 pg/ml to 1000 pg/ml, Promega, Inc.) or MMP2 (0.5 ng/ml to 100 ng/ml, R and D Systems). The plate was incubated for 2 hours at RT with shaking and then washed extensively with wash buffer (0.05% Tween 20 in PBS) followed by PBS. The TGFβ-1 ELISA was then developed according to the manufacturer's instruction. For the MMP2 ELISA, biotinylated detection antibody, clone 101721 (25 μL/well at 1.4 ug/ml R and D Systems) was added and incubated at RT (1hour, with shaking). The antibody was biotinylated using a Mini-Biotin-XX Protein Labeling Kit (F-6347) according to manufacturer's instruction (Molecular Probes, Eugene Oreg.). […] Absorbance was measured at 450 nm on a Vmax Kinetic microplate reader (Molecular Devices, Sunnyvale Calif.). […]

[1] = system: kidney or kidney-pancreas transplant recipients; conditions: human, in vivo
Excerpt: Methodology-retrospective analysis: The University of Wisconsin transplant database was screened to identify any kidney and/or kidney-pancreas transplant recipient who received 1,25-dihydroxyvitamin D3 (calcitriol)peri-post-transplant. Clinical and demographic variables were abstracted from the database. Those patients with adequate follow-up data were included in the analysis (≧1year follow-up data following the initiation of calcitriol). Demographic variables included race, age, and nay history of parathyroidectomy as these patients would likely be receiving calcitriol at time of transplantation. The effect of calcitriol treatment on renal function was analyzed using general linear mixed modeling of the change in slope of renal function prior to and following the start of calcitriol therapy. […] Adverse events and hypercalcemia were noted by identifiers in the database and by serum calcium levels as recorded in the database. Hypercalcemia was defined as a serum calcium >10.5 mg/dl.
The mean serum calcium in Group 1 and Group 2 patients was <10 mg/dl (9.6±0.9 mg/dl). There were no episodes of sustained hypercalcemia (>2 serial hypercalcemia values noted) or hypercalcemia events requiring hospitalization. There were no episodes of substained hematuria that could be directly attributable to hypercalcemia.

Smad 3 mRNA = assay: Semi-quantitative RT-PCR of renal grafts, Smad 3 mRNA; type: in vivo, rat; conditions: vs controls
Method: (§3) Semi-quantitative Reverse transcription polymerace chain reaction (RT-PCR): Following graft harvest a […] containing both cortex and medulla was snap frozen in liquid nitrogen. Semi-quantitative RT-PCR was performed as described. Little et al. Transplant Int. 12:393-401, 1999. Briefly, samples were homogenized then total RNA extracted with RNAzol B (Tel Test, Inc., Friendswood, Tex.) and reversed transcribed to cDNA according to manufacturer=s instructions (Superscript, Gibco BRL). PCR was performed over the linear range of amplification for both the gene of interest, e.g. TGFβ-1, and the ribosomal protein S26 as a control housekeeping gene. PCR conditions were chosen such that both products were amplified with similar efficiency. The following cycle parameters were employed: denaturing, 94° C. for 60 seconds; annealing, 61° C. for 60 seconds; and extension, 72° C. for 60 seconds. The amount of product was quantified using a phosphoimager (Storm 80) following gel electrophoresis and Vista green detection.

MMP 2 mRNA = assay: Semi-quantitative RT-PCR of renal grafts, MMP 2 mRNA; type: in vivo, rat
Method: as §1, §3

bioactive TGFβ-1 [2] = assay: Antigen-capture ELISA of renal graft lysates, bioactive TGFβ-1; type: in vivo, rat; conditions: treated recipients vs untreated allogeneic control grafts
Method: as §2, with “Oreg.). Following further washing, avidin-peroxidase conjugate was added (25 ul/well at 1:5000) for 30 minutes at RT. A color reaction was developed by the addition of 25 ul of the TMB (3, 3′, 5, 5′-tetramethylbenzidine)/[…] substrate solution, (KPL, Gaithersberg, Md.).” for “Oreg.).”

Smad 7 mRNA = assay: Semi-quantitative RT-PCR of renal grafts, Smad 7 mRNA; type: in vivo, rat; conditions: vs controls
Method: as §3

bioactive TGFβ-1 [3] = assay: Immunohistochemistry of renal grafts for bioactive TGFβ-1; type: in vivo, rat
Method: FIGS. 6 (B) and (C) show immunohistochemistry for bioactive TGFβ-1 in two 1,25-(OH)2D3 treated grafts (1000 ng/rat/day). […] Magnification 200×.
Immunhistochemistry: Formalin fixed, paraffin embedded rat kidneys were sectioned to 4 microns. Sections were rewarmed on day of staining at 60° for 10 minutes, then deparaffinized in xylene for 30 minutes followed by rehydration. Sections were washed twice in distilled water and antigen retrieval performed. Briefly, section were soaked in 100 mM citrate buffer, pH=6.0 for 10 minutes at 90° C. and then heated to 115° C. or 20 minutes Sections were allowed to cool and then washed in PBS and blocked for 10 minutes with BIOCARE SUPER SNIPER9 (BS996L) followed by diluted primary TGFβ-1 antibody (1:150 (Promega Corp., Madison, Wis.; G1221) at 4° C. overnight. Slides were washed (3×5 minutes, PBS) and secondary antibody applied (1 hour at RT, MACHII BIOCARE goat anti-rabbit with polymer spacer; RHRP52OH, Walnut Creek, Calif.).
Slides were developed with Pierce=s Stable Peroxide buffer (cat #1855910) and Pierce=s Stable Metal enhanced DAB solution (cat #1856090).

C=C1/C(=C\C=C2/CCC[C@]3(C)[C@@H]([C@H](C)CCCC(C)(C)O)CC[C@@H]23)C[C@@H](O)C[C@@H]1O [calcitriol, 1,25-dihydroxyvitamin D3]
Total MMP 2 protein expression (MMP 2 protein): increased
Episodes of sustained hematuria attributable to hypercalcemia [1]: no episodes
Smad 3 mRNA levels (Smad 3 mRNA): no significant change
Increase in MMP 2 mRNA levels (MMP 2 mRNA; allogeneic grafts (FIG. 5A)): 5.6 fold
Increase in MMP 2 mRNA levels (MMP 2 mRNA; syngeneic grafts (FIG. 5A)): 4.0 fold
Bioactive TGFβ-1 protein levels (bioactive TGFβ-1 [2]): no significant difference
Smad 7 mRNA levels (Smad 7 mRNA): no significant change
Glomerular staining for bioactive TGFβ-1 (bioactive TGFβ-1 [3]; 1000 ng/rat/day (FIG. 6 legend)): significantly decreased
Bioactive TGFβ-1 staining in tubular areas (bioactive TGFβ-1 [3]; allogeneic grafts (FIG. 6)): extensive staining
Bioactive TGFβ-1 expression in glomeruli (bioactive TGFβ-1 [3]; treated grafts in contrast to untreated control grafts (FIG. 6)): little bioactive TFGβ-1 expression
